Measurements: ChEMBL document CHEMBL1201862, “PubChem BioAssay data set” (2004)
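All cell lines were grown in 96-well plates and treated with compound for 48 hours. GI50 = concentration required for 50% inhibition of growth.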 Activity calls are given as the source filed them. No stated cut-off is given here; in the data, active = GI50 up to about 1.1 µM and inactive = higher.

Key:
Experiment in all cases: NCI anticancer screen, dose series, 48 h
786-0 = system: 786-0
A498 = system: A498
A549 = system: A549
ACHN = system: ACHN
BT-549 = system: BT-549
CAKI-1 = system: CAKI-1
CCRF-CEM = system: CCRF-CEM
COLO 205 = system: COLO 205
DU-145 = system: DU-145
EKVX = system: EKVX
HCT-116 = system: HCT-116
HCT-15 = system: HCT-15
HL-60 = system: HL-60
HOP-62 = system: HOP-62
HOP-92 = system: HOP-92
HT-29 = system: HT-29
Hs-578T = system: Hs-578T
IGROV-1 = system: IGROV-1
K562 = system: K562
KM12 = system: KM12
LOX IMVI = system: LOX IMVI
M14 = system: M14
MCF7 = system: MCF7
MDA-MB-231 = system: MDA-MB-231
MDA-MB-435 = system: MDA-MB-435
MDA-N = system: MDA-N
MOLT-4 = system: MOLT-4
Malme-3M = system: Malme-3M
NCI-H226 = system: NCI-H226
NCI-H23 = system: NCI-H23
NCI-H460 = system: NCI-H460
NCI-H522 = system: NCI-H522
NCI/ADR-RES = system: NCI/ADR-RES
OVCAR-3 = system: OVCAR-3
OVCAR-4 = system: OVCAR-4
OVCAR-5 = system: OVCAR-5
OVCAR-8 = system: OVCAR-8
PC-3 = system: PC-3
RPMI-8226 = system: RPMI-8226
RXF 393 = system: RXF 393
SF-268 = system: SF-268
SF-295 = system: SF-295
SF-539 = system: SF-539
SK-MEL-28 = system: SK-MEL-28
SK-MEL-2 = system: SK-MEL-2
SK-MEL-5 = system: SK-MEL-5
SK-OV-3 = system: SK-OV-3
SN12C = system: SN12C
SNB-19 = system: SNB-19
SNB-75 = system: SNB-75
SR = system: SR
SW-620 = system: SW-620
T47D = system: T47D
TK-10 = system: TK-10
U-251 = system: U-251
UACC-257 = system: UACC-257
UACC-62 = system: UACC-62
UO-31 = system: UO-31
HCC 2998 = system: HCC 2998

COC(=O)[C@H]1[C@H](C(=O)OC)[C@@H](C)c2c(ccc3c2[nH]c2ccccc23)[C@@H]1C
GI50 (786-0): 21.2 µM (inactive)
GI50 (A498): > 100 µM (inactive)
GI50 (A549): 31.1 µM (inactive)
GI50 (ACHN): 44.5 µM (inactive)
GI50 (BT-549): > 100 µM (inactive)
GI50 (CAKI-1): 68.4 µM (inactive)
GI50 (CCRF-CEM): 22.4 µM (inactive)
GI50 (COLO 205): 66.7 µM (inactive)
GI50 (DU-145): 41.5 µM (inactive)
GI50 (EKVX): 69.8 µM (inactive)
GI50 (HCT-116): 34.6 µM (inactive)
GI50 (HCT-15): > 100 µM
GI50 (HL-60): 5.81 µM (inactive)
GI50 (HOP-62): 35.6 µM (inactive)
GI50 (HOP-92): 37.9 µM (inactive)
GI50 (HT-29): 19.1 µM (inactive)
GI50 (Hs-578T): 31.1 µM (inactive)
GI50 (IGROV-1): 71.9 µM (inactive)
GI50 (K562): 0.9 µM (active)
GI50 (KM12): 32.9 µM (inactive)
GI50 (LOX IMVI): 22.6 µM (inactive)
GI50 (M14): 24.2 µM (inactive)
GI50 (MCF7): 43.4 µM (inactive)
GI50 (MDA-MB-231): 25.6 µM (inactive)
GI50 (MDA-MB-435): > 100 µM (inactive)
GI50 (MDA-N): 90.8 µM (inactive)
GI50 (MOLT-4): 0.3 µM (active)
GI50 (Malme-3M): 49.8 µM (inactive)
GI50 (NCI-H226): > 100 µM (inactive)
GI50 (NCI-H23): 41.2 µM (inactive)
GI50 (NCI-H460): 36.8 µM (inactive)
GI50 (NCI-H522): 41.5 µM (inactive)
GI50 (NCI/ADR-RES): > 100 µM (inactive)
GI50 (OVCAR-3): 69.2 µM (inactive)
GI50 (OVCAR-4): 38.9 µM (inactive)
GI50 (OVCAR-5): > 100 µM (inactive)
GI50 (OVCAR-8): 46.3 µM (inactive)
GI50 (PC-3): 37.4 µM (inactive)
GI50 (RPMI-8226): 11.8 µM (inactive)
GI50 (RXF 393): 14.1 µM (inactive)
GI50 (SF-268): 48.9 µM (inactive)
GI50 (SF-295): 18.6 µM (inactive)
GI50 (SF-539): > 100 µM (inactive)
GI50 (SK-MEL-28): > 100 µM (inactive)
GI50 (SK-MEL-2): 34.1 µM (inactive)
GI50 (SK-MEL-5): > 100 µM (inactive)
GI50 (SK-OV-3): 92.9 µM (inactive)
GI50 (SN12C): 13.2 µM (inactive)
GI50 (SNB-19): 56.4 µM (inactive)
GI50 (SNB-75): 19.7 µM (inactive)
GI50 (SR): 0.521 µM (active)
GI50 (SW-620): 95.1 µM (inactive)
GI50 (T47D): 13 µM (inactive)
GI50 (TK-10): 26.4 µM (inactive)
GI50 (U-251): 62.1 µM (inactive)
GI50 (UACC-257): 19.4 µM (inactive)
GI50 (UACC-62): > 100 µM (inactive)
GI50 (UO-31): > 100 µM (inactive)

CCn1cc(C(=O)O)c(=O)c2cc3c(cc21)S(=O)(=O)CC3
GI50 (786-0): > 100 µM (inactive)
GI50 (A498): > 100 µM (inactive)
GI50 (A549): > 100 µM (inactive)
GI50 (ACHN): > 100 µM (inactive)
GI50 (BT-549): > 100 µM (inactive)
GI50 (CAKI-1): > 100 µM (inactive)
GI50 (CCRF-CEM): > 100 µM (inactive)
GI50 (COLO 205): > 100 µM (inactive)
GI50 (DU-145): > 100 µM (inactive)
GI50 (EKVX): > 100 µM (inactive)
GI50 (HCC 2998): > 100 µM (inactive)
GI50 (HCT-116): > 100 µM (inactive)
GI50 (HCT-15): > 100 µM
GI50 (HL-60): > 100 µM (inactive)
GI50 (HOP-62): > 100 µM (inactive)
GI50 (HOP-92): > 100 µM (inactive)
GI50 (HT-29): > 100 µM (inactive)
GI50 (Hs-578T): > 100 µM (inactive)
GI50 (IGROV-1): > 100 µM (inactive)
GI50 (K562): > 100 µM (inactive)
GI50 (KM12): > 100 µM (inactive)
GI50 (LOX IMVI): > 100 µM (inactive)
GI50 (M14): > 100 µM (inactive)
GI50 (MCF7): > 100 µM (inactive)
GI50 (MDA-MB-231): > 100 µM (inactive)
GI50 (MDA-MB-435): > 100 µM (inactive)
GI50 (MDA-N): > 100 µM (inactive)
GI50 (MOLT-4): > 100 µM (inactive)
GI50 (Malme-3M): > 100 µM (inactive)
GI50 (NCI-H226): > 100 µM (inactive)
GI50 (NCI-H23): > 100 µM (inactive)
GI50 (NCI-H460): > 100 µM (inactive)
GI50 (NCI-H522): > 100 µM (inactive)
GI50 (NCI/ADR-RES): > 100 µM (inactive)
GI50 (OVCAR-3): > 100 µM (inactive)
GI50 (OVCAR-4): > 100 µM (inactive)
GI50 (OVCAR-5): > 100 µM (inactive)
GI50 (OVCAR-8): > 100 µM (inactive)
GI50 (PC-3): > 100 µM (inactive)
GI50 (RPMI-8226): > 100 µM (inactive)
GI50 (RXF 393): > 100 µM (inactive)
GI50 (SF-268): > 100 µM (inactive)
GI50 (SF-295): > 100 µM (inactive)
GI50 (SF-539): > 100 µM (inactive)
GI50 (SK-MEL-28): > 100 µM (inactive)
GI50 (SK-MEL-2): > 100 µM (inactive)
GI50 (SK-MEL-5): > 100 µM (inactive)
GI50 (SK-OV-3): > 100 µM (inactive)
GI50 (SN12C): > 100 µM (inactive)
GI50 (SNB-19): > 100 µM (inactive)
GI50 (SNB-75): > 100 µM (inactive)
GI50 (SW-620): > 100 µM (inactive)
GI50 (T47D): > 100 µM (inactive)
GI50 (TK-10): > 100 µM (inactive)
GI50 (U-251): 24.2 µM (inactive)
GI50 (UACC-257): > 100 µM (inactive)
GI50 (UACC-62): > 100 µM (inactive)
GI50 (UO-31): > 100 µM (inactive)
